In assay [1] the test system is HT-29. The experiment in a line: Antiproliferative activity against human HT-29 cells after 72 hrs by MTT assay. Type of assay: functional, cell-based. The note with it: HT-29, 72 h. In general terms: Formazan colour is commonly taken as a measure of viable cells.
In assay [2] the test system is HT-29. The experiment in a line: Antiproliferative activity against human HT-29 cells after 96 hrs by MTT assay. Type of assay: functional, cell-based. The note with it: HT-29, 96 h.
Assay [3] deals with MCF7. In words: Antiproliferative activity against human MCF7 cells after 48 hrs by MTT assay. It counts as functional, cell-based. To be noted: MCF7, 48 h.
For assay [4], the system named is HEK293. The experiment in a line: Antiproliferative activity against human HEK293 cells incubated with 2000 cells per well after 48 hrs by MTT assay. Type of assay: cell-based. The note with it: HEK293, 48 h.
Assay [5] has as its system K562. The experiment in a line: Induction of apoptosis in human K562 cells assessed as early apoptotic cells at 10 uM after 48 hrs by annexin-V-FITC/PI staining based flow cytometry. It counts as functional, cell-based.
Assay [6] has as its system Jurkat. The experiment in a line: Induction of apoptosis in human Jurkat cells assessed as early apoptotic cells at 10 uM after 48 hrs by annexin-V-FITC/PI staining based flow cytometry. Type of assay: functional, cell-based. A general note: A flow cytometer gives signals particle by particle.
For assay [7], the system named is Jurkat. In words: Induction of reactive oxygen species in human Jurkat cells after 48 hrs by flow cytometry analysis. It counts as functional, cell-based.
Assay [8] deals with K562. In words: Induction of reactive oxygen species in human K562 cells after 48 hrs by flow cytometry analysis. It counts as functional, cell-based.
The species named for assay [9] is Mus musculus. In words: Induction of apoptosis in C57BL/6 mouse liver mitochondrial assessed as cytochrome c release after 1 hr by immunoblotting method. The note with it: Mitochondria. Type of assay: functional.
For assay [10], the system named is Jurkat. The experiment in a line: Induction of apoptosis in human Jurkat cells assessed as increase in cleaved PARP-1 level at 20 uM after 48 hrs by immunoblotting. Type of assay: functional, cell-based. (In general: A western blot detects proteins with antibodies after separation by electrophoresis.)
Assay [11] has as its system HEK293. The experiment in a line: Antiproliferative activity against human HEK293 cells incubated with 3000 cells per well after 48 hrs by MTT assay. Type of assay: cell-based. The note with it: HEK293, 48 h.
Assay [12] concerns Jurkat. In words: Induction of apoptosis in human Jurkat cells assessed as early apoptotic cells at 25 uM after 48 hrs by annexin-V-FITC/PI staining based flow cytometry. Type of assay: functional, cell-based.
In assay [13] the test system is K562. The experiment in a line: Induction of apoptosis in human K562 cells assessed as early apoptotic cells at 25 uM after 48 hrs by annexin-V-FITC/PI staining based flow cytometry. Type of assay: functional, cell-based.
In assay [14] the test system is Jurkat. In words: Induction of apoptosis in human Jurkat cells assessed as late apoptotic cells at 25 uM after 48 hrs by annexin-V-FITC/PI staining based flow cytometry. Type of assay: functional, cell-based.
Assay [15] deals with K562. The experiment in a line: Induction of apoptosis in human K562 cells assessed as late apoptotic cells at 25 uM after 48 hrs by annexin-V-FITC/PI staining based flow cytometry. It counts as functional, cell-based.
Assay [16] has as its system HepG2. In words: Antiproliferative activity against human HepG2 cells after 48 hrs by MTT assay. To be noted: HepG2, 48 h. Type of assay: functional, cell-based.
For assay [17], the system named is K562. The experiment in a line: Induction of reactive oxygen species in human K562 cells at >= 50 uM after 48 hrs by flow cytometry analysis. Type of assay: functional, cell-based.
For assay [18], the system named is Jurkat. The experiment in a line: Induction of reactive oxygen species in human Jurkat cells at >= 50 uM after 48 hrs by flow cytometry analysis. It counts as functional, cell-based.
In assay [19] the test system is Jurkat. In words: Induction of apoptosis in human Jurkat cells after 48 hrs at 50 uM by annexin-V-FITC/PI staining based flow cytometry. It counts as functional, cell-based.
Assay [20] concerns K562. The experiment in a line: Induction of apoptosis in human K562 cells after 48 hrs at 50 uM by annexin-V-FITC/PI staining based flow cytometry. It counts as functional, cell-based.
For assay [21], the system named is Jurkat. The experiment in a line: Induction of apoptosis in human Jurkat cells assessed as increase in cleaved PARP-1 level at 50 and 100 uM after 48 hrs by immunoblotting. Type of assay: functional, cell-based.

Activity calls are given as the source filed them. The rule behind the calls is not given here.

As usually defined, the EC50 is the concentration that produces a half-maximal response. The low end stands for a more potent agent, the high end for a less potent agent. Turning to `COc1ccc(S(=O)(=O)n2c3ccccc3c3nnsc32)cc1`, the EC50 in assay [1] came to 7.97 µM; in [2] it was 6.97 µM; in assay [3], 12.9 µM; in assay [4], 15.3 µM; in assay [11] it was 12.3 µM. For the same molecule, the outcome in assay [5], in [6] and in assay [10] was Active. The Activity result in assay [7] and in assay [8] was “Dose-dependent effect” throughout. Besides, in assay [9], the result was inactive.

`Clc1ccc2[nH]c3snnc3c2c1`: the EC50 in [1] is 26.2 µM; in assay [2], 33.8 µM; in [3] it was 31.2 µM; in assay [4] it was 24.4 µM. In addition, the Activity result in assay [7] and in [8] was “Dose-dependent effect” each time. For the same molecule, the result in [12], in [13], in [14] and in assay [15] was Active.

Regarding `O=C(c1ccc(Cl)cc1)n1c2ccccc2c2nnsc21`, the EC50 in assay [1] was 49.4 µM; in [2], 52.3 µM; in assay [16], 60.2 µM. In addition, the result in assay [17], in assay [18], in assay [19], in assay [20] and in [21] was Active. The outcome in [9] was inactive.
